Measured values taken from patent US20250345459A1, “COMPOUND OR SALT THEREOF, LIPID COMPOSITION, PHARMACEUTICAL COMPOSITION, AND DELIVERY CARRIER” (FUJIFILM Corporation, priority 2023, published 2025).

Tests used:
[1] = test system: ICR mice; assay: EPO protein expression in mice after intravenous EPO mRNA lipid nanoparticles; type: in vivo; conditions: mRNA 0.1 mg/kg, plasma 6 hours after administration
Experimental: (§1) The compounds described in Table 1, the neutral lipid, cholesterol (product name: Cholesterol HP; NIPPON FINE CHEMICAL CO., LTD.), and 1,2-dimyristoyl-rac-glycero-3-(methylpolyoxyethylene 2000) (hereinafter, called DMG-PEG2000) (product name: SUNBRIGHT® GM-020; NOF corporation) were dissolved in ethanol at a molar ratio of ionized lipid:neutral lipid:cholesterol:DMG-PEG2000=50:10:38.5:1.5 mol % such that the total lipid concentration was 12.5 mmol/L, to obtain an oil phase.
(§2) As the neutral lipid, 1,2-distearoyl-sn-glycero-3-phosphocholine (product name: COATSOME® MC-8080; NOF corporation) (hereinafter, DSPC), or L-α-dioleoylphosphatidylethanolamine (hereinafter, DOPE) (product name: COATSOME® MC-8181; NOF corporation) was used.
(§3) EPO mRNA (product name: CleanCap EPO mRNA (5 moU); TriLink) was diluted with 50 mmol/L citrate buffer having a pH 4.0 such that the weight ratio of total lipid concentration to mRNA concentration is about 20:1 to 64:1, thereby obtaining a water phase. Then, the water phase and the oil phase were mixed together using NanoAssemblr (Precision NanoSystems) such that the volume ratio of water phase:oil phase was 3:1. The mixed solution was diluted 2-fold with any of phosphate buffered physiological saline (PBS), water, or a 20 mmol/L Tris buffer solution (pH 7.4) to obtain a dispersion liquid of mRNA lipid nanoparticles. The dispersion liquid was dialyzed with 20 mmol/L Tris buffer solution (pH 7.4) containing 8% sucrose using a dialysis cassette (Slide-A-Lyzer G2, MWCO: 10 kD, Thermo Fisher Scientific) to remove ethanol, thereby obtaining EPO mRNA-encapsulating lipid nanoparticles.
The dispersion liquid of mRNA lipid nanoparticles prepared in above <Preparation of EPO mRNA-encapsulating lipid nanoparticles> was intravenously administered to ICR mice at a mRNA dosage of 0.1 mg/kg. 6 hours after the administration, blood was collected from the caudal vena cava, thereby obtaining plasma. The human EPO […] was quantified by using the obtained blood plasma and Erythropoietin (EPO) Human Elisa Kit (Abcam.plc). The quantitative value is described as a relative amount of EPO protein in a case where Comparative Example 1 is 1.

[2] = Particle size of EPO mRNA-encapsulating lipid nanoparticles; type: physicochemical
Experimental: as §1, §2, §3
The particle size of the mRNA-encapsulating lipid nanoparticles was measured by 5-fold diluting the dispersion liquid of lipid nanoparticle with phosphate buffered physiological saline (PBS) using a particle size measurement device NanoSaqla (Otsuka Electronics Co., Ltd.).

[3] = test system: EPO mRNA; assay: mRNA encapsulation rate of mRNA lipid nanoparticles; type: physicochemical
Experimental: as §1, §2, §3
EPO mRNA was diluted with MilliQ water to prepare a diluted sample in 2-fold dilution series from 100 µg/mL to […], and a calibration curve solution was prepared. 50 μL of the calibration curve solution or the mRNA lipid nanoparticles was mixed with 450 μL of methanol to prepare a measurement solution.
The absorbance of each measurement solution at 260 nm and 330 nm was measured using a UV plate reader (Multiskan Go, Thermo Fisher Scientific), the absorbance at 330 nm was subtracted from the absorbance at 260 nm, and the result was defined as the absorbance of each measurement solution. The total […] nucleic acid concentration was calculated from the calibration curve using the absorbance of each sample measurement solution.
The concentration of the outer water phase nucleic acid was quantified by a standard addition method using a QuanT-iT RiboGreen RNA Assay Kit (Thermo Fisher Scientific). First, a 20× TE buffer included in the above kit was diluted with water, thereby obtaining a 1×TE buffer. TE represents Tris/EDTA (ethylenediaminetetraacetic acid). EPO mRNA was diluted with a TE buffer such that the final concentration was 0 to 400 ng/mL to prepare a nucleic acid diluted series. 10 μL of mRNA lipid nanoparticles diluted 5-fold with TE buffer and 90 µL of a nucleic acid dilution series were mixed in a 96-well plate, 100 μL of a Ribogreen reagent diluted 200-fold with TE buffer was added to each well, and then fluorescence (excitation wavelength: 485 nm, fluorescence wavelength: 535 nm) was measured using a fluorescence plate reader (Infinite 200 Pro M nano+, TECAN). From the obtained results, the outer water phase nucleic acid concentration of each measurement solution was calculated according to the standard addition method.
By using the quantification results of the total mRNA concentration and the mRNA concentration in the outer water phase that were obtained through the above steps, the mRNA encapsulation rate of the mRNA lipid nanoparticles was calculated according to the following Equation. […]

[4] = neutral lipid DSPC, Lipid/Nucleic acid (wt/wt) 20, Comparative Example 1 is 1
[5] = LNP with neutral lipid DSPC, mixed solution PBS, Lipid/Nucleic acid (wt/wt) 20
[6] = neutral lipid DOPE, Lipid/Nucleic acid (wt/wt) 64, Comparative Example 1 is 1
[7] = LNP with neutral lipid DOPE, mixed solution PBS, Lipid/Nucleic acid (wt/wt) 64
[8] = LNP with neutral lipid DSPC, mixed solution 20 mM Tris, Lipid/Nucleic acid (wt/wt) 20
[9] = LNP with neutral lipid DSPC, mixed solution Water, Lipid/Nucleic acid (wt/wt) 20

CCCCCCCCCCCOC(=O)CN(CC(=O)OCCCCCCCCCCC)C(=O)OCCN(CCOC(=O)N(CC(=O)OCCCCCCCCCCC)CC(=O)OCCCCCCCCCCC)CCN(CC)CC [Example 33, Diundecyl 8-(2-(diethylamino)ethyl)-4,12-dioxo-3,13-bis(2-oxo-2-(undecyloxy)ethyl)-5,11-dioxa-3,8,13-triazapentadecanedioate]
Relative amount of EPO protein (to Comparative Example 1) [1, 4]: 2.90 | Particle size (nm) [2, 5]: 155 nm | Nucleic acid encapsulation rate (%) [3, 5]: 78%

CCCCCC(CCCCC)COC(=O)CCCCCN(CCCCC)C(=O)OCCN(CCOC(=O)N(CCCCC)CCCCCC(=O)OCC(CCCCC)CCCCC)CCN(CC)CC [Example 46, Bis(2-pentylheptyl) 12-(2-(diethylamino)ethyl)-8,16-dioxo-7,17-dipentyl-9,15-dioxa-7,12,17-triazatricosanedioate]
Relative amount of EPO protein (to Comparative Example 1) [1, 4]: 1.54 | Particle size (nm) [2, 5]: 104 nm | Nucleic acid encapsulation rate (%) [3, 5]: 93%

CCCCCCCN(CCCCCC(=O)OCC(CCCCC)CCCCC)C(=O)OCCN(CCOC(=O)N(CCCCCCC)CCCCCC(=O)OCC(CCCCC)CCCCC)CCN(CC)CC [Example 45, Bis(2-pentylheptyl) 12-(2-(diethylamino)ethyl)-7,17-diheptyl-8,16-dioxo-9,15-dioxa-7,12,17-triazatricosanedioate]
Relative amount of EPO protein (to Comparative Example 1) [1, 4]: 2.19 | Particle size (nm) [2, 5]: 84 nm | Nucleic acid encapsulation rate (%) [3, 5]: 95%

CCCCCCC(CCCCCC)COC(=O)CCCCN(CCCC)C(=O)OCCN(CCCN(CC)CC)CCOC(=O)N(CCCC)CCCCC(=O)OCC(CCCCCC)CCCCCC [Example 24, Bis(2-hexyloctyl) 6,16-dibutyl-11-(3-(diethylamino)propyl)-7,15-dioxo-8,14-dioxa-6,11,16-triazahenicosanedioate]
Relative amount of EPO protein (to Comparative Example 1) [1, 4]: 1.48 | Particle size (nm) [2, 5]: 197 nm | Nucleic acid encapsulation rate (%) [3, 5]: 92%

CCCCCCCN(CCCCCC(=O)OCC(CCCCC)CCCCC)C(=O)OCCN(CCCN(CC)CC)CCOC(=O)N(CCCCCCC)CCCCCC(=O)OCC(CCCCC)CCCCC [Example 48, Bis(2-pentylheptyl) 12-(3-(diethylamino)propyl)-7,17-diheptyl-8,16-dioxo-9,15-dioxa-7,12,17-triazatricosanedioate]
Relative amount of EPO protein (to Comparative Example 1) [1, 4]: 2.26 | Particle size (nm) [2, 5]: 90 nm | Nucleic acid encapsulation rate (%) [3, 5]: 96%

CCCCCCCCN(CCCCCCCCCC(=O)OCC(CCCCCC)CCCCCC)C(=O)OCCN(CCOC(=O)CCCCCCC)CCN(CC)CC [Comparative Example 1, 2-hexyloctyl 3-ethyl-6-(2-(octanoyloxy)ethyl)-11-octyl-10-oxo-9-oxa-3,6,11-triazahenicosan-21-oate, reference compound]
Relative amount of EPO protein (to Comparative Example 1) [1, 4]: 1.00 | Particle size (nm) [2, 5]: 206 nm | Nucleic acid encapsulation rate (%) [3, 5]: 62%

CCCCCCCCCCOC(=O)CN(CC(=O)OCCCCCCCCCC)C(=O)OCCN(CCOC(=O)N(CC(=O)OCCCCCCCCCC)CC(=O)OCCCCCCCCCC)CCN(CC)CC [Example 27, Decyl 2-(2-(2-(bis(2-decoxy-2-oxo-ethyl)carbamoyloxy)ethyl-(2-(diethylamino)ethyl)amino)ethoxycarbonyl-(2-decoxy-2-oxo-ethyl)amino)acetate]
Relative amount of EPO protein (to Comparative Example 1) [1, 4]: 3.85 | Particle size (nm) [2, 5]: 149 nm | Nucleic acid encapsulation rate (%) [3, 5]: 82%

CCCCCCN(CCCCCC(=O)OCC(CCCCC)CCCCC)C(=O)OCCN(CCOC(=O)N(CCCCCC)CCCCCC(=O)OCC(CCCCC)CCCCC)CCN(CC)CC [Example 25, Bis(2-pentylheptyl) 12-(2-(diethylamino)ethyl)-7,17-dihexyl-8,16-dioxo-9,15-dioxa-7,12,17-triazatricosanedioate]
Relative amount of EPO protein (to Comparative Example 1) [1, 4]: 3.56 | Particle size (nm) [2, 5]: 167 nm | Nucleic acid encapsulation rate (%) [3, 5]: 78%

CCCCCCN(CCCCC(=O)OCC(CCCCC)CCCCC)C(=O)OCCN(CCOC(=O)N(CCCCCC)CCCCC(=O)OCC(CCCCC)CCCCC)CCN(CC)CC [Example 4, bis(2-pentylheptyl) 11-(2-(diethylamino)ethyl)-6,16-dihexyl-7,15-dioxo-8,14-dioxa-6,11,16-triazahenicosanedioate]
Relative amount of EPO protein (to Comparative Example 1) [1, 6]: 13.62 | Relative amount of EPO protein (to Comparative Example 1) [1, 4]: 12.27 | Particle size (nm) [2, 7]: 109.5 nm | Particle size (nm) [2, 8]: 96 nm | Particle size (nm) [2, 5]: 94 nm | Particle size (nm) [2, 9]: 93 nm | Nucleic acid encapsulation rate (%) [3, 7]: >99% | Nucleic acid encapsulation rate (%) [3, 8]: 91% | Nucleic acid encapsulation rate (%) [3, 5]: 92% | Nucleic acid encapsulation rate (%) [3, 9]: 91%

CCCCCCCCN(CCCCC(=O)OCCCCCCC)C(=O)OCCN(CCOC(=O)N(CCCCCCCC)CCCCC(=O)OCC(CCCCCC)CCCCCC)CCN(CC)CC [Example 40, 1-Heptyl 21-(2-hexyloctyl) 11-(2-(diethylamino)ethyl)-6,16-dioctyl-7,15-dioxo-8,14-dioxa-6,11,16-triazahenicosanedioate]
Relative amount of EPO protein (to Comparative Example 1) [1, 4]: 8.10 | Particle size (nm) [2, 5]: 162 nm | Nucleic acid encapsulation rate (%) [3, 5]: 74%

CCCCCCC(CCCC)COC(=O)CCCCN(CCCCCC)C(=O)OCCN(CCOC(=O)N(CCCCCC)CCCCC(=O)OCC(CCCC)CCCCCC)CCN(CC)CC (stereo not shown) [Example 17, Bis(2-butyloctyl) 11-(2-(diethylamino)ethyl)-6,16-dihexyl-7,15-dioxo-8,14-dioxa-6,11,16-triazahenicosanedioate]
Relative amount of EPO protein (to Comparative Example 1) [1, 4]: 5.76 | Particle size (nm) [2, 5]: 165 nm | Nucleic acid encapsulation rate (%) [3, 5]: 80%

CCCCCCCCN(CCCCCC(=O)OCC(CCCCC)CCCCC)C(=O)OCCN(CCOC(=O)N(CCCCCCCC)CCCCCC(=O)OCC(CCCCC)CCCCC)CCN(CC)CC [Example 50, bis(2-pentylheptyl) 12-(2-(diethylamino)ethyl)-7,17-dioctyl-8,16-dioxo-9,15-dioxa-7,12,17-triazatricosanedioate]
Relative amount of EPO protein (to Comparative Example 1) [1, 4]: 1.55 | Particle size (nm) [2, 5]: 82 nm | Nucleic acid encapsulation rate (%) [3, 5]: 96%

CCCCCCCCN(CCCCC(=O)OCC(CCCCCC)CCCCCC)C(=O)OCCN(CCOC(=O)N(CCCCCCCC)CCCCC(=O)OCC(CCCCCC)CCCCCC)CCN(CC)CC [Example 2, bis(2-hexyloctyl) 11-(2-(diethylamino)ethyl)-6,16-dioctyl-7,15-dioxo-8,14-dioxa-6,11,16-triazahenicosanedioate]
Relative amount of EPO protein (to Comparative Example 1) [1, 6]: 24.57 | Relative amount of EPO protein (to Comparative Example 1) [1, 4]: 6.70 | Particle size (nm) [2, 7]: 95.6 nm | Particle size (nm) [2, 5]: 82 nm | Nucleic acid encapsulation rate (%) [3, 7]: 99% | Nucleic acid encapsulation rate (%) [3, 5]: 94%

CCCCCCCCN(CCCCCCCC)C(=O)OCCN(CCOC(=O)N(CCCCCCCC)CCCCCCCC)CCN(CC)CC [Example 1, ((2-(diethylamino)ethyl)azanediyl)bis(ethan-2,1-diyl)bis(dioctylcarbamate)]
Relative amount of EPO protein (to Comparative Example 1) [1, 6]: 21.60 | Particle size (nm) [2, 7]: 88.6 nm | Nucleic acid encapsulation rate (%) [3, 7]: >99%
